In data set [1] the target is T1, Solute carrier family 12 member 2 (Homo sapiens) (UniProt P55011).
T1 sequence (whole entry): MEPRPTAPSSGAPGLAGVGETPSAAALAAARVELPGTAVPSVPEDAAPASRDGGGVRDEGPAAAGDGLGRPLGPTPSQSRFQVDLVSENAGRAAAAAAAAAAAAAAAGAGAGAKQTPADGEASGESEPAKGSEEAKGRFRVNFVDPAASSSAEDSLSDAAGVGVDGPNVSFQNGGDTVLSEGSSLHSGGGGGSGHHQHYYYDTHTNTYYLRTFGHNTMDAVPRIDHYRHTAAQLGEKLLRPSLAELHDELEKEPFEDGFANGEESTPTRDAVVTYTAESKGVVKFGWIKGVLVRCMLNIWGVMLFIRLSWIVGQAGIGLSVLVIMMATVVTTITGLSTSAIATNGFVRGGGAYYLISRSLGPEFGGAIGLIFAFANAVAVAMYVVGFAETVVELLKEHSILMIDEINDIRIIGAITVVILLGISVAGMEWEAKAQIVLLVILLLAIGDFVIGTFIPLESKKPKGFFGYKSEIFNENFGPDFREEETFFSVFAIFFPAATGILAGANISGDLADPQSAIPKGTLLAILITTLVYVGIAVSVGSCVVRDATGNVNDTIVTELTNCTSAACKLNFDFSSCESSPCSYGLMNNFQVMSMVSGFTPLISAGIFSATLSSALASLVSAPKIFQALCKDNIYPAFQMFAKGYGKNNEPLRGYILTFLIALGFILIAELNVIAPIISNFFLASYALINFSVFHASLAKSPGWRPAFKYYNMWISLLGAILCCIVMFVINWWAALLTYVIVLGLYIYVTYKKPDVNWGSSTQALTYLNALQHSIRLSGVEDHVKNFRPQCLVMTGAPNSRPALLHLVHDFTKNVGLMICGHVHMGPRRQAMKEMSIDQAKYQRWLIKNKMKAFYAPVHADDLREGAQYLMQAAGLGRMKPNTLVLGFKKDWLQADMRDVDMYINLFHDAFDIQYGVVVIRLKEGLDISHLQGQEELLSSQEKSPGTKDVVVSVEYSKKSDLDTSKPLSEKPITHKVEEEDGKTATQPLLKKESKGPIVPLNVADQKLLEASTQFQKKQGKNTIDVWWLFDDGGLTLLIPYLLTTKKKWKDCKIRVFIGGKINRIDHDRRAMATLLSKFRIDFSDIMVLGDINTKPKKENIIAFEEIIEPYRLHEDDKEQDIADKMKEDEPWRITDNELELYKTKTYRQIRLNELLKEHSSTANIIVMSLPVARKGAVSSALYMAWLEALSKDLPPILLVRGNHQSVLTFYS
Kind of data set: Inhibition of NKCC1 (unknown origin) transfected in HEK293 cells expressing mbYFPQS plasmid assessed as reduction in Cl- influx at 10 uM incubated for 30 mins by fluorescence multiplate reader analysis. Format: cell-based.

The nature of data set [2]: Solubility of compound in assay buffer at pH 7.4 assessed as precipitation at 100 uM measured after 15 mins. Format: physicochemical. The note with it: pH 7.4, 0.25 h.
The next data set has as its system Primary neuron. Kind of data set: Inhibition of NKCC1 in mouse primary hippocampal neurons assessed as reduction of Ca2+ uptake at 100 uM incubated for 15 mins by Fluo-4AM dye based fluorescence analysis. The data set is classed as cell-based.
Data set [3] deals with Mus musculus. Put plainly: Diuretic activity in wild type mouse assessed as increase in urine volume at 0.6 mg/kg, ip measured after 2 hrs. The data set is classed as functional, organism-based.
The test system of data set [4] is Mus musculus. Kind of data set: Diuretic activity in Ts65Dn mouse assessed as increase in urine volume at 0.6 mg/kg, ip measured after 2 hrs. Format: functional, organism-based.
In data set [5] the target is T1, Solute carrier family 12 member 2 (Homo sapiens). Put plainly: Inhibition of NKCC1 (unknown origin) transfected in HEK293 cells expressing mbYFPQS plasmid assessed as reduction in Cl- influx at 100 uM incubated for 30 mins by fluorescence multiplate reader analysis. Format: cell-based.
Data set [6] in a line: Solubility of compound in Cl- free hypotonic solution at pH 7.4 assessed as precipitation at 100 uM measured after 30 mins. Format: physicochemical. The note with it: buffer, pH 7.4, 0.5 h.
Data set [7] concerns Mus musculus. Kind of data set: Cognitive enhancement effect in Ts65Dn mouse assessed as restoration of short-term working memory by measuring number of correct choices at 0.6 mg/kg, ip measured after 1 to 4 weeks by T-maze test. The data set is classed as functional, organism-based. As to conditions: time 1-4 weeks.
Data set [8] in a line: Toxicity in Ts65Dn mouse assessed as reduction in body weight at 0.6 mg/kg, ip administered daily for 3 weeks. The data set is classed as organism-based. The note with it: in vivo, 504 h.
The subject of data set [9] is Mus musculus. Put plainly: Rescue of hyperactivity in Ts65Dn mouse assessed as assessed as reduction in total distance travelled at 0.6 mg/kg, ip measured after 1 to 4 weeks by open field test. The data set is classed as functional, organism-based. The note with it: time 1-4 weeks.
For data set [10], the system named is Mus musculus. Put plainly: Cognitive enhancement effect in Ts65Dn mouse assessed as rescue of electric shock induced freezing response at 0.6 mg/kg, ip measured after 1 to 4 weeks by contextual fear-conditioning test. Format: functional, organism-based. As to conditions: time 1-4 weeks.
A short description of data set [11]: Toxicity in mouse assessed as reduction in body weight at 0.6 mg/kg, ip administered daily for 3 weeks. The data set is classed as organism-based. As to conditions: in vivo, 504 h.
In data set [12] the target is T2, Solute carrier family 12 member 5 (Homo sapiens) (UniProt Q9H2X9).
T2 sequence (whole entry): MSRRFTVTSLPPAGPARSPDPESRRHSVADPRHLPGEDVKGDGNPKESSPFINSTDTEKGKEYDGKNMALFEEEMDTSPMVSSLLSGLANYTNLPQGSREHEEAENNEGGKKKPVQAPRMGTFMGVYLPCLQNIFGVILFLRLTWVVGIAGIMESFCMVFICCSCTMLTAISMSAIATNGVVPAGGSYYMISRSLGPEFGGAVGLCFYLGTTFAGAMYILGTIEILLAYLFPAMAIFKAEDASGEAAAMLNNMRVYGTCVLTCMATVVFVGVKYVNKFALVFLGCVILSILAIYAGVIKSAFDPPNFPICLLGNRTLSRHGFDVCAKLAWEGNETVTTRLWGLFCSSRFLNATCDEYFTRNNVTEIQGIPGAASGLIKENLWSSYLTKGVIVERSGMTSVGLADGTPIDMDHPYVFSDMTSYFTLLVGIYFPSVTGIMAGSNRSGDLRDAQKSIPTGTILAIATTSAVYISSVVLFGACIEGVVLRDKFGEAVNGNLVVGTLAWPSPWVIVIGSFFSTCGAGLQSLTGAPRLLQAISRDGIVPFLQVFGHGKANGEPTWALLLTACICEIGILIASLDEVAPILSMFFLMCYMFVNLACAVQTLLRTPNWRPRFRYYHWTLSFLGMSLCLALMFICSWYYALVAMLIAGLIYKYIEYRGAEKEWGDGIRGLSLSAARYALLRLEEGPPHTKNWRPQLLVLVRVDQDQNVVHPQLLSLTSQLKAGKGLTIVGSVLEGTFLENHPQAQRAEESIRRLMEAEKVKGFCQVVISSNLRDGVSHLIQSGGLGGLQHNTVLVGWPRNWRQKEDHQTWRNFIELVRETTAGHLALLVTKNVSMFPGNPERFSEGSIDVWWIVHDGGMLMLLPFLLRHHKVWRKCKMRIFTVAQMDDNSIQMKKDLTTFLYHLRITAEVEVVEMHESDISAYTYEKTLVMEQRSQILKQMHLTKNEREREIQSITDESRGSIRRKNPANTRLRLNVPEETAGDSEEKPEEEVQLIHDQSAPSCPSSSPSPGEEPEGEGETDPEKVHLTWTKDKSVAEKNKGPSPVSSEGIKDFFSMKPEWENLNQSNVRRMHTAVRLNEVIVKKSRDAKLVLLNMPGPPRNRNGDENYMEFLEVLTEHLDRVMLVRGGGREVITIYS
Kind of data set: Inhibition of KCC2 (unknown origin) transfected in HEK293 cells assessed a reduction in TI influx at 10 uM incubated for 1 hr by fluorescence based analysis relative to control. Format: cell-based.

The subject of data set [13] is Mus musculus. Put plainly: Cognitive enhancement effect in Ts65Dn mouse assessed as rescue of poor novel-discrimination ability by measuring increase in time spent in exploring novel object at 0.6 mg/kg, ip measured after 1 to 4 weeks by novel object recognition test. The data set is classed as functional, organism-based. The note with it: time 1-4 weeks.

Calls of active or inactive are those of the source. The calls are words filed in the database; no cut-off is given here.

Take `CCCCCCNc1ccc(C(=O)O)cc1S(N)(=O)=O`: the inhibition entry in data set [1] was “inactive”.

Regarding `COCCCCNc1ccc(C(=O)O)cc1S(=O)(=O)N(C)C`, the inhibition entry in data set [1] is “inactive”.

Regarding `O=C(O)c1ccc(NCCCCCCCC(F)(F)F)c(S(=O)(=O)N2CCCCC2)c1`, the solubility entry in data set [2] is recorded as “Insoluble”. The inhibition result in the data set with Primary neuron was “inactive”.

Consider `CCCCNc1cc(C(=O)O)cc(S(N)(=O)=O)c1Oc1ccccc1`, for which the result in the data set on Mus musculus [3] and in the data set with Mus musculus [4] was Active.

As for `CNS(=O)(=O)c1cc(C(=O)O)ccc1NCCC(C)(C)C`, the inhibition result in [1] is “inactive”.

On to `CN(C)S(=O)(=O)c1cc(C(=O)O)ccc1NCCCCCC(F)(F)F`, for which, in data set [1], the inhibition entry was “inactive”.

Regarding `COCCCCCCNc1ccc(C(=O)O)cc1S(=O)(=O)N(C)C`, the inhibition result in data set [1] and in data set [5] was “inactive” throughout.

With `CCCCCCCCNc1ccc([N+](=O)[O-])cc1S(=O)(=O)NC`, the inhibition entry in [1] and in data set [5] was “inactive” throughout.

In the case of `CCCCCCCCNc1ccc(C(=O)O)cc1S(=O)(=O)N(C)C`, the inhibition entry in data set [1] was “inactive”.

Turning to `CCCCCCNc1ccc(C(=O)O)cc1S(=O)(=O)N(C)C`, in [1], the inhibition result was “inactive”.

As for `CC(C)(C)CCNc1ccc(C(=O)O)cc1S(N)(=O)=O`, in [1], the inhibition result was “inactive”.

As to `CCCCNc1ccc(C(=O)O)cc1S(N)(=O)=O`, the inhibition entry in [1] was “inactive”.

For `CCCCCCCCNc1ccc([N+](=O)[O-])cc1S(=O)(=O)N(C)C`, the inhibition result in data set [1] and in data set [5] was “inactive” throughout.

Take `CCCCCCNc1ccc([N+](=O)[O-])cc1S(=O)(=O)N(C)C`: in [1], the inhibition entry is “inactive”.

For `CN(C)S(=O)(=O)c1cc(C(=O)O)ccc1NCCC(C)(C)C`, the inhibition result in data set [1] and in data set [5] was “inactive” each time.

On to `CCCCCCCCNc1ccc(C(=O)O)cc1S(N)(=O)=O`, for which the inhibition entry in data set [1] was “inactive”.

For `CCCCNc1ccc([N+](=O)[O-])cc1S(=O)(=O)N(C)C`, in data set [6], the solubility result is reported as “Insoluble”. The inhibition result in [1] is “inactive”.

As to `CN(C)S(=O)(=O)c1cc([N+](=O)[O-])ccc1NCCC(C)(C)C`, the solubility result in data set [6] is given as “Insoluble”.

On to `CN(C)S(=O)(=O)c1cc(C(=O)O)c(OC2CCCC2)cc1NCCCCCCCC(F)(F)F`, for which, in data set [2], the solubility entry is “Insoluble”. The inhibition result in the data set with Primary neuron is “inactive”.

In the case of `CCCCCCNc1ccc(C(=O)O)cc1S(=O)(=O)NC`, the inhibition entry in data set [1] and in data set [5] was “inactive” in each case.

On to `O=C(O)c1ccc(NCCCCCCCC(F)(F)F)c(S(=O)(=O)NC2CCCC2)c1`, for which the solubility entry in data set [2] is given as “Insoluble”. The inhibition result with Primary neuron is “inactive”.

With `CCCCNc1ccc([N+](=O)[O-])cc1S(=O)(=O)NC`, the inhibition result in data set [1] was “inactive”.

For `CN(C)S(=O)(=O)c1cc(C(=O)O)ccc1NCCCC(F)(F)F`, the inhibition entry in data set [1] was “inactive”.

With `CN(C)S(=O)(=O)c1cc(C(=O)O)c(O)cc1NCCCCCCCC(F)(F)F`, the result in the data set with Mus musculus [7], in the data set with Mus musculus [9], in the data set on Mus musculus [10] and in the data set on Mus musculus [13] was Active. Moreover, the Activity entry in data set [8] and in data set [11] was “Non-Toxic” in each case. The result in the data set with Mus musculus [3] and with Mus musculus [4] was inactive. Further, the inhibition result in data set [12] and in data set [1] was “inactive” throughout.

As for `O=C(O)c1ccc(NCCCCCCCC(F)(F)F)c(S(=O)(=O)NC2CCCCC2)c1`, the solubility result in data set [2] is given as “Insoluble”. Also, in the data set on Primary neuron, the inhibition entry was “inactive”.

Consider `CCCCNc1ccc([N+](=O)[O-])cc1S(N)(=O)=O`, for which the inhibition result in data set [1] was “inactive”.

With `CC(C)(C)CCNc1ccc([N+](=O)[O-])cc1S(N)(=O)=O`, the inhibition result in data set [1] is “inactive”.

Consider `CCCCCCNc1ccc([N+](=O)[O-])cc1S(N)(=O)=O`, for which the inhibition entry in data set [1] is “inactive”.

Source of the values: ChEMBL document CHEMBL5038596, “Design, Synthesis, In Vitro and In Vivo Characterization of Selective NKCC1 Inhibitors for the Treatment of Core Symptoms in Down Syndrome” (J Med Chem, 2021).
